Tests used:
SW-620 = assay: Cytotoxicity against human SW620 cells; format: functional
PC-3 = assay: Cytotoxicity against human PC3 cells; format: functional
Leishmania peruviana = assay: Antileishmanial activity against Leishmania peruviana MHOM/PE/LCA08 promastigote infected BALB/c mouse macrophages after 48 hrs by Giemsa staining method; format: functional, organism-based; settings: MHOM/PE/LCA08, 48 h
DU-145 = assay: Cytotoxicity against human DU145 cells; format: functional
SN12C = assay: Cytotoxicity against human SN12C cells; format: functional
OVCAR-8 = assay: Cytotoxicity against human OVCAR8 cells; format: functional
HL-60(TB) = assay: Cytotoxicity against human HL-60(TB) cells; format: functional
SF-295 = assay: Cytotoxicity against human SF295 cells; format: functional
UACC-257 = assay: Cytotoxicity against human UACC257 cells; format: functional
NCI-H23 = assay: Cytotoxicity against human NCI-H23 cells; format: functional
NCI-H460 = assay: Cytotoxicity against human NCI-H460 cells; format: functional
EKVX = assay: Cytotoxicity against human EKVX cells; format: functional
[1] = Cytotoxicity against BALB/c mouse macrophages after 48 hrs by trypan blue dye exclusion method; format: cell-based; settings: Macrophage
HCT-15 = assay: Cytotoxicity against human HCT15 cells; format: functional
MOLT-4 = assay: Cytotoxicity against human MOLT4 cells; format: functional
MDA-MB-435 = assay: Cytotoxicity against human MDA-MB-435 cells; format: functional
T47D = assay: Cytotoxicity against human T47D cells; format: functional
Leishmania amazonensis = assay: Antileishmanial activity against Leishmania amazonensis MHOM/BR/76/LTB-012 amastigotes infected BALB/c mouse macrophages after 48 hrs by MTT assay; format: functional, organism-based; settings: MHOM/BR/76/LTB-012, 48 h
[2] = Selectivity index, ratio of IC50 for african green monkey Vero cells to MIC for Mycobacterium tuberculosis H37Rv ATCC 27294 by microplate alamar blue assay; format: functional
NCI-H322M = assay: Cytotoxicity against human NCI-H322M cells; format: functional
M14 = assay: Cytotoxicity against human M14 cells; format: functional
K562 = assay: Cytotoxicity against human K562 cells; format: functional
MCF7 = assay: Cytotoxicity against human MCF7 cells; format: functional
SF-268 = assay: Cytotoxicity against human SF268 cells; format: functional
OVCAR-4 = assay: Cytotoxicity against human OVCAR4 cells; format: functional
HOP-92 = assay: Cytotoxicity against human HOP92 cells; format: functional
[3] = read-out: LC50 (the source's name)

C(=N\Nc1ncnc2sc3c(c12)CCCC3)/c1ccccn1
GI50 (SW-620): 0.561 µM
TGI (SW-620): 17.9 µM
CC50 (SW-620; [3]): 59.5 µM
GI50 (PC-3): 0.431 µM
TGI (PC-3): 71.1 µM
CC50 (PC-3; [3]): > 100 µM
IC50 (Leishmania peruviana): 0.7 µM
GI50 (DU-145): 0.37 µM
LC50 (DU-145): 51.6 µM
TGI (DU-145): 15.1 µM
GI50 (SN12C): 0.426 µM
TGI (SN12C): 15.3 µM
CC50 (SN12C; [3]): 81 µM
GI50 (OVCAR-8): 0.481 µM
TGI (OVCAR-8): > 1 µM
CC50 (OVCAR-8; [3]): > 0.1 µM
GI50 (HL-60(TB)): 0.12 µM
TGI (HL-60(TB)): 0.407 µM
CC50 (HL-60(TB); [3]): > 100 µM
GI50 (SF-295): 0.313 µM
TGI (SF-295): 12.1 µM
CC50 (SF-295; [3]): > 100 µM
GI50 (UACC-257): 0.355 µM
CC50 (UACC-257; [3]): 41.7 µM
GI50 (NCI-H23): 0.705 µM
TGI (NCI-H23): 34.3 µM
CC50 (NCI-H23; [3]): > 100 µM
GI50 (NCI-H460): 0.4 µM
TGI (NCI-H460): 1.73 µM
CC50 (NCI-H460; [3]): 31.1 µM
GI50 (EKVX): 0.317 µM
TGI (EKVX): 20.5 µM
CC50 (EKVX; [3]): > 100 µM
IC50 [1]: 6.5 µM
GI50 (HCT-15): 0.45 µM
TGI (HCT-15): 27 µM
CC50 (HCT-15; [3]): > 100 µM
GI50 (MOLT-4): 0.261 µM
TGI (MOLT-4): 0.774 µM
CC50 (MOLT-4; [3]): > 100 µM
GI50 (MDA-MB-435): 0.477 µM
TGI (MDA-MB-435): 25.1 µM
CC50 (MDA-MB-435; [3]): > 100 µM
GI50 (T47D): 0.0764 µM
TGI (T47D): 28 µM
CC50 (T47D; [3]): > 100 µM
IC50 (Leishmania amazonensis): 0.5 µM
Ratio IC50 [2]: 0.2
GI50 (NCI-H322M): 0.216 µM
TGI (NCI-H322M): 35 µM
CC50 (NCI-H322M; [3]): > 100 µM
GI50 (M14): 0.25 µM
TGI (M14): 0.599 µM
CC50 (M14; [3]): 33.4 µM
GI50 (K562): 0.16 µM
TGI (K562): 10.8 µM
CC50 (K562; [3]): > 100 µM
GI50 (MCF7): 0.09 µM
TGI (MCF7): 15.3 µM
CC50 (MCF7; [3]): 80 µM
GI50 (SF-268): 0.356 µM
TGI (SF-268): 15.1 µM
CC50 (SF-268; [3]): 83 µM
GI50 (OVCAR-4): 0.431 µM
TGI (OVCAR-4): 26.3 µM
CC50 (OVCAR-4; [3]): > 0.1 µM
GI50 (HOP-92): 0.417 µM
TGI (HOP-92): 31 µM
CC50 (HOP-92; [3]): > 100 µM
